In PubChem BioAssay (NCI):
“And” between values parts separate entries of the source, which are not always exact repeats. Identical values can stand only once.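 Each compound was tested at five concentrations against cells in 96-well plates for 48 hours. GI50 is the concentration that inhibits growth by half. TGI denotes the concentration required for complete inhibition of growth.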

What was measured:
Assay in all cases: growth of human tumour cells (NCI), 48 h
[1] = system: M14 melanoma
[2] = system: MCF7 breast
[3] = system: HCT-15 colon
[4] = system: CAKI-1 renal
[5] = system: ACHN renal
[6] = system: BT-549 breast
[7] = system: PC-3 prostate
[8] = system: HCC-2998 colon
[9] = system: MOLT-4 leukemia
[10] = system: HOP-92 NSCLC

Structure (SMILES)	GI50 [1] [µM]	TGI [1] [µM]	GI50 [2]	TGI [2]	GI50 [3]	TGI [3]	GI50 [4]	TGI [4]	GI50 [5]	TGI [5]	GI50 [6] [µM]	TGI [6] [µM]	GI50 [7] [µM]	TGI [7]	GI50 [8]	TGI [8]	GI50 [9] [µM]	TGI [9]	GI50 [10]	TGI [10]
COc1cc2c(c(OC)c1OC)-c1c(c3ccc([N+](=O)[O-])cc3c(=O)n1CCCN=[N+]=[N-])C2=O	34.4	> 100	1.37 µM	> 100 µM	44.6 µM	> 100 µM	50.3 µM	> 100 µM	14.1 µM	39.6 µM	47.5	> 100	> 100	> 100 µM	> 100 µM	> 100 µM	> 100	> 100 µM	21.5 µM	80.2 µM
Nc1nc(N)c2nn(-c3ccc(C(=O)O)cc3)nc2n1	–	> 100	–	> 100 µM	–	> 100 µM	–	> 100 µM	–	> 100 µM	–	> 100	–	> 100 µM	–	> 100 µM	–	> 100 µM	–	> 100 µM
C=C1C(=O)O[C@H]2[C@H]1CC/C(Cn1cc(CNC(=O)c3cc4ccccc4[nH]3)nn1)=C\CC[C@@]1(C)O[C@@H]21	2.09	6.27	2.94 µM	15.4 µM	10.2 µM	27.4 µM	2.26 µM	12.2 µM	4.73 µM	17.2 µM	4.09	16.5	1.88	4.79 µM	14 µM	31.5 µM	2.71	7.15 µM	1.53 µM	3.16 µM
COc1cc2c(cc1Nc1nc(Nc3ccsc3C(N)=O)c3cc[nH]c3n1)N(C(=O)CN(C)C)CCC2	0.592	3.28	0.00343 µM	> 25 µM	1.87 µM	> 25 µM	3.64 µM	10.2 µM	2.67 µM	6.06 µM	2.38	6.43	1.17	> 23.6 µM	0.2 µM	2.27 µM	1.23	9.6 µM	< 0.0025 µM	1.19 µM
CCCCCCn1c(=N)n(CC(O)COc2cccc(C)c2)c2ccccc21 (stereo not drawn)	1.83	3.42	1.76 µM	3.55 µM	2.12 µM	5.34 µM	2.89 µM	10.6 µM	2.02 µM	4.25 µM	1.8	3.51	2.16	5.23 µM	2.04 µM	3.65 µM	2.39	6.16 µM	2.2 µM	8.02 µM
O=C1C2=C(Nc3cc([N+](=O)[O-])ccc3N2)OC1c1c[nH]c2ccc(COc3ccccc3)cc12 (stereo not drawn)	–	> 100	–	> 100 µM	–	> 100 µM	–	> 100 µM	–	> 100 µM	–	> 100	–	> 100 µM	–	> 100 µM	–	40.4 µM	–	> 100 µM
COC(=O)c1cc2c([nH]c3ccccc32)c(-c2nc3cc(N(S(=O)(=O)c4ccc(C)cc4)S(=O)(=O)c4ccc(C)cc4)c(OC)cc3cc2CO)n1	> 100	> 100	> 100 µM	> 100 µM	> 100 µM	> 100 µM	> 100 µM	> 100 µM	> 100 µM	> 100 µM	> 100	> 100	> 100	> 100 µM	> 100 µM	> 100 µM	10.6	25.7 µM	> 100 µM	> 100 µM
O=C(/C=C/CN1CCCCC1)Nc1cc2c(Nc3ccc(F)c(Cl)c3F)ncnc2cc1OCCOC(F)F	2.12	6.61	1.35 µM	10.3 µM	0.633 µM	3.86 µM	< 0.0151 µM	1.44 µM	< 0.01 µM	1.55 µM	1.97	8.62	1.68	8.43 µM	1.6 µM	3.97 µM	1.15	5.27 µM	0.0548 µM	1.12 µM
N#Cc1ccccc1C#C/C=C\C#Cc1cnccn1	5.78	13.8	> 60 µM	> 100 µM	20.6 µM	> 61 µM	6.95 µM	> 23.4 µM	32.9 µM	98.7 µM	35.4	> 100	30.9	> 100 µM	4.79 µM	28.2 µM	> 24.3	> 100 µM	–	> 28.4 µM
C[CH2][Ge]1([CH2]C)[CH2]CC2(CCN(CCCN(C)C)C2)C[CH2]1	0.333	0.624	0.99 µM and 2.42 µM	2.69 µM and 4.05 µM	1.07 µM and 1.51 µM	2.74 µM and 2.65 µM	1.61 µM and 3.04 µM	3.31 µM and 8.49 µM	1.84 µM and 1.7 µM	3.66 µM and 3.95 µM	1.69	3.23	1.8	4.44 µM and 1.34 µM	0.21 µM and 1.68 µM	0.543 µM and 3.8 µM	–	2.91 µM and 25.7 µM	0.201 µM and 1 µM	1.65 µM and 1.34 µM
COc1cc(C2C3=C(COC3=O)N(CCO)c3cc4c(cc32)CCC4)cc(OC)c1OC (stereo not drawn)	0.0672	0.199	0.0986 µM	23.8 µM	0.199 µM	> 32.5 µM	0.484 µM	> 32.5 µM	0.229 µM	> 32.5 µM	0.136	> 18.4	0.112	> 32.5 µM	0.0693 µM	0.164 µM	0.147	> 32.5 µM	0.862 µM	> 25.3 µM
COc1ccc(/C=C2\CC(C)CC3C2=NN(C(C)=O)C3c2ccc(OC)c(OC)c2)cc1OC (stereo not drawn)	15.1	28.7	14.4 µM	30.6 µM	15.4 µM	32.8 µM	53.3 µM	> 100 µM	17.6 µM	46.5 µM	19	37.9	13.8	> 100 µM	12 µM	24.3 µM	12.6	43.6 µM	13.8 µM	33.5 µM
CNCc1ccc(C)c(NC(=O)c2ccc(Nc3nc(-c4ccccc4)c4ccccc4n3)cc2)c1	1.83	3.4	1.58 µM	3.25 µM	1.69 µM	3.35 µM	1.87 µM	3.57 µM	2.01 µM	3.82 µM	1.84	3.37	1.92	4.15 µM	1.96 µM	3.58 µM	2.1	4.76 µM	0.687 µM	3.24 µM
Cn1c([N+](=O)[O-])cnc1/C=C1\Oc2ccc(Cl)cc2C1=O	0.636	4.26	0.485 µM	4.42 µM	0.251 µM	1.04 µM	0.257 µM	0.754 µM	0.258 µM	0.921 µM	1.2	4.99	1.12	7.1 µM	2.02 µM	4.68 µM	0.32	3.32 µM	1.03 µM	4.12 µM
COc1ccc(C2CC(c3ccc(OC)c(OC)c3)=NN2C(=O)c2cc(OC)c(OC)c(OC)c2)cc1 (stereo not drawn)	1.95	> 100	0.647 µM	> 100 µM	1.76 µM	> 100 µM	0.473 µM	> 24.9 µM	2.41 µM	> 100 µM	3.96	> 46.7	3.57	> 100 µM	1.85 µM	4.77 µM	7.36	> 100 µM	0.168 µM	0.841 µM
O=C1/C(=C/c2ccc([N+](=O)[O-])s2)Oc2ccc(Cl)cc21	0.512	1.52	0.305 µM	1.43 µM	0.192 µM	0.55 µM	2.05 µM	6.68 µM	0.234 µM	0.595 µM	0.248	0.682	0.216	0.593 µM	0.515 µM	1.33 µM	0.371	2.47 µM	0.176 µM	0.519 µM
CC(C)(O)C1CC(=O)C(C)(C2C(O)CC3(C)C4CC=C5C(CCC(O)C5(C)C)C4(C)C(=O)CC23C)O1 (stereo not drawn)	–	> 100	–	> 100 µM	–	> 100 µM	–	> 100 µM	–	> 100 µM	–	> 100	–	> 100 µM	–	> 100 µM	–	> 100 µM	–	> 100 µM
COc1c(C)cnc(Cn2cnc3c(Cl)nc(N)nc32)c1C	0.478	> 100	0.0402 µM	> 100 µM	0.107 µM	26.7 µM	0.397 µM	> 100 µM	0.289 µM	> 100 µM	1.43	> 100	0.359	> 100 µM	0.457 µM	10.7 µM	0.281	> 100 µM	0.467 µM	2.8 µM
CCCCc1ccc(C(N)=O)nc1	> 100	> 100	> 100 µM	> 100 µM	> 100 µM	> 100 µM	> 100 µM	> 100 µM	> 100 µM	> 100 µM	> 100	> 100	> 100	> 100 µM	> 100 µM	> 100 µM	> 100	> 100 µM	> 100 µM	> 100 µM
Cc1cccc(NC(=O)c2sc3nc4c(cc3c2N)CCC4)c1C	0.236	2.4	0.261 µM	13.6 µM	0.264 µM	21.3 µM	0.332 µM	56.7 µM	0.951 µM	36.7 µM	0.443	23.5	0.369	15.7 µM	0.687 µM	22.5 µM	0.576	> 100 µM	0.449 µM	19 µM
CN1CCN(Cc2ccc(NC(=O)c3cncc(C#Cc4c(N)ncc5ccc(F)cc45)c3)cc2C(F)(F)F)CC1	0.194	0.857	0.297 µM	1.53 µM	0.487 µM	6.85 µM	1.06 µM	5.68 µM	0.562 µM	1.27 µM	2.14	8.66	1.23	3.78 µM	0.653 µM	9.66 µM	0.234	3.03 µM	0.0285 µM	0.322 µM
